Converted amounts (≈) assume the structure as drawn.
Assays:
Mus musculus [1] = experiment: (§1) In vivo efficacy against Staphylococcus aureus 10649, in mouse protection tests when administered subcutaneously (sc); assay type: functional
Mus musculus [2] = experiment: (§2) In vivo efficacy against Staphylococcus aureus 10649, in mouse protection tests when administered perorally (po); assay type: functional
Mus musculus [3] = experiment: In vivo efficacy against Escherichia coli Juhl, in mouse protection tests when administered subcutaneously (sc); assay type: functional
Mus musculus [4] = experiment: In vivo efficacy against Escherichia coli Juhl, in mouse protection tests when administered perorally (po); assay type: functional
Pseudomonas aeruginosa [5] = experiment: In vitro Minimum inhibitory concentration against Pseudomonas aeruginosa K799/WT; assay type: functional
Streptococcus equinus = experiment: In vitro Minimum inhibitory concentration against Streptococcus bovis A5169; assay type: functional
Escherichia coli [6] = experiment: In vitro Minimum inhibitory concentration against Escherichia coli Juhl; assay type: functional
Klebsiella pneumoniae = experiment: In vitro Minimum inhibitory concentration against Klebsiella pneumoniae 8045; assay type: functional
Pseudomonas aeruginosa [7] = experiment: In vitro Minimum inhibitory concentration against Pseudomonas aeruginosa 5007; assay type: functional
Streptococcus pyogenes = experiment: In vitro Minimum inhibitory concentration against Streptococcus pyogenes 930; assay type: functional
Staphylococcus aureus [8] = experiment: In vitro Minimum inhibitory concentration against Staphylococcus aureus ATCC 6538P; assay type: functional
Streptococcus agalactiae = experiment: In vitro Minimum inhibitory concentration against Streptococcus agalactiae CMX 508; assay type: functional
Enterococcus faecium = experiment: In vitro Minimum inhibitory concentration against Streptococcus faecium ATCC 8043; assay type: functional
Acinetobacter = experiment: In vitro Minimum inhibitory concentration against Acinetobacter CMX 669; assay type: functional; details: Acinetobacter; read-out: MIC
Staphylococcus aureus [9] = experiment: In vitro Minimum inhibitory concentration against Staphylococcus aureus A5177; assay type: functional
Staphylococcus aureus [10] = experiment: In vitro Minimum inhibitory concentration against Staphylococcus aureus CMX 686B; assay type: functional
Staphylococcus aureus [11] = experiment: In vitro Minimum inhibitory concentration against Staphylococcus aureus 45; assay type: functional
[12] = system: Staphylococcus epidermidis; experiment: In vitro Minimum inhibitory concentration against Staphylococcus epidermidis 3519; assay type: functional
Escherichia coli [13] = experiment: Supercoiling inhibition assay using purified DNA gyrase isolated from Escherichia coli H560; assay type: functional; details: read-out: I50
Staphylococcus aureus [14] = experiment: as §1; assay type: functional
Staphylococcus aureus [15] = experiment: as §2; assay type: functional
[16] = Partition coefficient (logP); assay type: physicochemical; details: octanol/water
[17] = Compound was evaluated for the solubility in Ringer's buffer solution; assay type: ADME; details: Ringer's buffer solution; read-out: Solubility
[18] = Blood level was evaluated by a disk agar diffusion assay at 6.0 hr when administered at a peroral dose of 25 mg/kg; assay type: ADME, organism-based; parameters: dose 25 mg/kg, route oral; details: mouse, po, read-out: Blood level
[19] = Blood level was evaluated by a disk agar diffusion assay at 2.0 hr when administered at a peroral dose of 25 mg/kg; assay type: ADME, organism-based; parameters: dose 25 mg/kg, route oral; details: mouse, po, read-out: Blood level
[20] = Blood level was evaluated by a disk agar diffusion assay at 1.0 hr when administered at a peroral dose of 25 mg/kg; assay type: ADME, organism-based; parameters: dose 25 mg/kg, route oral; details: mouse, po, read-out: Blood level
[21] = Blood level was evaluated by a disk agar diffusion assay at 3.0 hh when administered at a peroral dose of 25 mg/kg; assay type: ADME, organism-based; parameters: dose 25 mg/kg, route oral; details: mouse, po, read-out: Blood level
[22] = Blood level was evaluated by a disk agar diffusion assay at 0.5 hr when administered at a peroral dose of 25 mg/kg; assay type: ADME, organism-based; parameters: dose 25 mg/kg, route oral; details: mouse, po, read-out: Blood level
[23] = Blood level was evaluated by a disk agar diffusion assay at 24.0 hr when administered at a peroral dose of 25 mg/kg; assay type: ADME, organism-based; parameters: dose 25 mg/kg, route oral; details: mouse, po, read-out: Blood level

MIC (Pseudomonas aeruginosa [5]) [µg/mL] | MIC (Streptococcus equinus) [µg/mL] | MIC (Escherichia coli [6]) [µg/mL] | MIC (Klebsiella pneumoniae) [µg/mL] | MIC (Pseudomonas aeruginosa [7]) [µg/mL] | MIC (Streptococcus pyogenes) [µg/mL] | MIC (Staphylococcus aureus [8]) [µg/mL] | MIC (Streptococcus agalactiae) [µg/mL] | MIC (Enterococcus faecium) [µg/mL] | MIC (Acinetobacter) [µg/mL] | MIC (Staphylococcus aureus [9]) [µg/mL] | MIC (Staphylococcus aureus [10]) [µg/mL] | MIC (Staphylococcus aureus [11]) [µg/mL] | MIC [12] [µg/mL] | IC50 (Escherichia coli [13]) [µg/mL] | logP [16] | SMILES | ED50 (Mus musculus [3]) [mg/kg] | ED50 (Mus musculus [4]) [mg/kg] | ED50 (Staphylococcus aureus [14]) [mg/kg] | ED50 (Staphylococcus aureus [15]) [mg/kg] | further results
– | – | – | – | – | – | – | – | – | – | – | – | – | – | – | – | NC1CCN(c2cc3c(cc2F)c(=O)c(C(=O)O)cn3-c2ccc(F)cc2)C1 (centres undefined) | 1 | 5.8 | – | – | ED50 (Mus musculus [1]): 0.8 mg/kg; ED50 (Mus musculus [2]): 6.2 mg/kg
0.39 (≈ 0.937 µM) | 1.56 (≈ 3.75 µM) | 0.05 (≈ 0.12 µM) | 0.05 (≈ 0.12 µM) | 0.39 (≈ 0.937 µM) | 0.78 (≈ 1.87 µM) | 0.1 (≈ 0.24 µM) | 0.78 (≈ 1.87 µM) | 0.39 (≈ 0.937 µM) | 0.39 (≈ 0.937 µM) | 0.39 (≈ 0.937 µM) | 0.2 (≈ 0.48 µM) | 0.78 (≈ 1.87 µM) | 0.39 (≈ 0.937 µM) | – | – | O=C(O)c1cn(-c2ccc(F)cc2F)c2nc(N3C[C@@H]4C[C@H]3CN4)c(F)cc2c1=O | – | – | – | – | –
0.39 (≈ 0.9 µM) | 1.56 (≈ 3.6 µM) | 0.78 (≈ 1.8 µM) | 0.78 (≈ 1.8 µM) | 0.78 (≈ 1.8 µM) | 0.39 (≈ 0.9 µM) | 0.1 (≈ 0.231 µM) | 0.78 (≈ 1.8 µM) | 0.78 (≈ 1.8 µM) | 6.2 (≈ 14.3 µM) | 0.78 (≈ 1.8 µM) | 0.39 (≈ 0.9 µM) | 1.56 (≈ 3.6 µM) | 0.78 (≈ 1.8 µM) | 0.4 (≈ 0.923 µM) | -0.98 | N[C@H]1CC(CO)N(c2cc3c(cc2F)c(=O)c(C(=O)O)cn3-c2ccc(F)cc2F)C1 (some centres undefined) | 5.9 | > 16 | 0.7 | 5.4 | solubility [17]: 60 µg/mL (≈ 138 µM)
0.39 (≈ 0.974 µM) | 0.78 (≈ 1.95 µM) | 0.05 (≈ 0.125 µM) | 0.05 (≈ 0.125 µM) | 0.39 (≈ 0.974 µM) | 0.39 (≈ 0.974 µM) | 0.05 (≈ 0.125 µM) | 0.78 (≈ 1.95 µM) | 0.39 (≈ 0.974 µM) | 0.1 (≈ 0.25 µM) | 0.1 (≈ 0.25 µM) | 0.05 (≈ 0.125 µM) | 0.1 (≈ 0.25 µM) | 0.1 (≈ 0.25 µM) | – | – | C[C@H]1C[C@H](N)CN1c1nc2c(cc1F)c(=O)c(C(=O)O)cn2-c1ccc(F)cc1 | – | – | 2 | 5.7 | concentration at 6 h [18]: 300 ng/mL; concentration at 2 h [19]: 1500 ng/mL; concentration at 1 h [20]: 1900 ng/mL; concentration at 3 h [21]: 800 ng/mL; concentration at 0.5 h [22]: 2400 ng/mL; concentration at 24 h [23]: 100 ng/mL
> 100 | 100 (≈ 250 µM) | 50 (≈ 125 µM) | 25 (≈ 62.4 µM) | > 100 | 50 (≈ 125 µM) | 3.1 (≈ 7.74 µM) | 100 (≈ 250 µM) | > 100 | > 100 | 3.1 (≈ 7.74 µM) | 3.1 (≈ 7.74 µM) | 3.1 (≈ 7.74 µM) | 3.1 (≈ 7.74 µM) | – | – | O=C(O)c1cn(-c2ccc(F)cc2)c2cc(N3CCC[C@H]3CO)c(F)cc2c1=O | – | – | – | – | –
0.78 (≈ 1.95 µM) | 0.2 (≈ 0.501 µM) | 0.02 (≈ 0.0501 µM) | 0.01 (≈ 0.025 µM) | 3.1 (≈ 7.76 µM) | 0.2 (≈ 0.501 µM) | 0.05 (≈ 0.125 µM) | 0.2 (≈ 0.501 µM) | 0.2 (≈ 0.501 µM) | 0.1 (≈ 0.25 µM) | 0.05 (≈ 0.125 µM) | 0.05 (≈ 0.125 µM) | 0.05 (≈ 0.125 µM) | 0.05 (≈ 0.125 µM) | – | – | C[C@H]1C[C@H](N)CN1c1cc2c(cc1F)c(=O)c(C(=O)O)cn2-c1ccc(F)cc1 | – | – | – | – | ED50 (Mus musculus [1]): 0.8 mg/kg; concentration at 2 h [19]: 400 ng/mL; concentration at 1 h [20]: 800 ng/mL; ED50 (Mus musculus [2]): 4.4 mg/kg; concentration at 3 h [21]: 200 ng/mL; concentration at 0.5 h [22]: 1000 ng/mL
0.39 (≈ 0.934 µM) | 0.2 (≈ 0.479 µM) | 0.05 (≈ 0.12 µM) | 0.02 (≈ 0.0479 µM) | 3.1 (≈ 7.43 µM) | 0.2 (≈ 0.479 µM) | 0.02 (≈ 0.0479 µM) | 0.1 (≈ 0.24 µM) | 0.1 (≈ 0.24 µM) | 0.1 (≈ 0.24 µM) | 0.2 (≈ 0.479 µM) | 0.05 (≈ 0.12 µM) | 0.1 (≈ 0.24 µM) | 0.2 (≈ 0.479 µM) | 0.9 (≈ 2.16 µM) | 0.085 | C[C@H]1C[C@H](N)CN1c1cc2c(cc1F)c(=O)c(C(=O)O)cn2-c1ccc(F)cc1F | 0.9 | 3.6 | < 0.5 | 3.3 | concentration at 3 h [21]: 1100 ng/mL; solubility [17]: 53 µg/mL (≈ 127 µM)
6.2 (≈ 14.9 µM) | 6.2 (≈ 14.9 µM) | 0.78 (≈ 1.87 µM) | 0.78 (≈ 1.87 µM) | 5 (≈ 12 µM) | 1.56 (≈ 3.74 µM) | 0.39 (≈ 0.934 µM) | 6.2 (≈ 14.9 µM) | 3.1 (≈ 7.43 µM) | 3.1 (≈ 7.43 µM) | 0.78 (≈ 1.87 µM) | 0.39 (≈ 0.934 µM) | 0.78 (≈ 1.87 µM) | 0.78 (≈ 1.87 µM) | 18 (≈ 43.1 µM) | 0.03 | C[C@@H]1C[C@H](N)CN1c1cc2c(cc1F)c(=O)c(C(=O)O)cn2-c1ccc(F)cc1F | – | – | – | – | solubility [17]: 182 µg/mL (≈ 436 µM)

From ChEMBL document CHEMBL1124182, “Design, synthesis, and properties of (4S)-7-(4-amino-2-substituted-pyrrolidin-1-yl)quinolone-3-carboxylic acids” (J Med Chem, 1988)
